The text below walks through data of ChEMBL document CHEMBL2157909, “Design, synthesis, spectral and biological evaluation of novel 1-allyl substituted 2,6-diphenylpiperidin-4-ones and its derivatives of oximes/oxime ethers” (2012).

≈ marks a conversion by molar mass, not a printed value.

The test system of one assay is Staphylococcus aureus. Kind of assay: Antibacterial activity against Staphylococcus aureus ATCC 25930 after 24 hrs by two fold serial dilution method. Format: functional. The settings on record: ATCC 25930, 24 h.
Another assay deals with Pseudomonas. In words: Antibacterial activity against Pseudomonas ATCC 27853 after 24 hrs by two fold serial dilution method. It is filed as functional. Particulars: ATCC 27853, 24 h.
Another assay has as its system Rhizopus. Kind of assay: Antifungal activity against Rhizopus sp. ATCC 2842 after 72 to 96 hrs by two fold serial dilution method. It is filed as functional.
The next assay relates to Aspergillus niger. In words: Antifungal activity against Aspergillus niger ATCC 635 after 72 to 96 hrs by two fold serial dilution method. Format: functional.
Another assay concerns Aspergillus flavus. In words: Antifungal activity against Aspergillus flavus ATCC 525 after 72 to 96 hrs by two fold serial dilution method. It is filed as functional.
In the next assay the test system is Penicillium chrysogenum. Kind of assay: Antifungal activity against Penicillium chrysogenum ATCC 28089 after 72 to 96 hrs by two fold serial dilution method. It is filed as functional.
The subject of another assay is Fusarium oxysporum. Kind of assay: Antifungal activity against Fusarium oxysporum ATCC 48112 after 72 to 96 hrs by two fold serial dilution method. Format: functional.
Another assay concerns Escherichia coli. In words: Antibacterial activity against Escherichia coli ATCC 26032 after 24 hrs by two fold serial dilution method. Format: functional. The settings on record: ATCC 26032, 24 h.
The next assay has as its system Bacillus subtilis. In words: Antibacterial activity against Bacillus subtilis ATCC 530 after 24 hrs by two fold serial dilution method. Format: functional. The settings on record: ATCC 530, 24 h.
For a further assay, the system named is Salmonella typhi. In words: Antibacterial activity against Salmonella typhi ATCC 25021 after 24 hrs by two fold serial dilution method. It is filed as functional, Salmonella enterica subsp. enterica serovar Typhi. The settings on record: Salmonella enterica, ATCC 25021, 24 h.
A short description of assay [1]: Ratio of MIC for Bacillus subtilis ATCC 530 to MIC for Salmonella typhi ATCC 25021. It is filed as functional.
Assay [2] in a line: Ratio of MIC for Pseudomonas ATCC 27853 to MIC for Salmonella typhi ATCC 25021. Format: functional.

As to `C=CCN1[C@@H](c2ccccc2)C/C(=N/O)C[C@H]1c1ccccc1` (relative stereo), the MIC – broadly, the least concentration at which growth counts as inhibited – against Staphylococcus aureus amounted to 50 µg/mL (≈ 163 µM); against Pseudomonas, 50 µg/mL (≈ 163 µM); in the assay with Rhizopus, 25 µg/mL (≈ 81.6 µM); with Aspergillus niger it was 12.5 µg/mL (≈ 40.8 µM); with Aspergillus flavus it was 25 µg/mL (≈ 81.6 µM); against Penicillium chrysogenum, 50 µg/mL (≈ 163 µM). The MIC against Fusarium oxysporum is 50 µg/mL (≈ 163 µM); in the assay on Escherichia coli it was 25 µg/mL (≈ 81.6 µM); in the assay on Bacillus subtilis, 6.25 µg/mL (≈ 20.4 µM); against Salmonella typhi it was 100 µg/mL (≈ 326 µM).

Regarding `C=CCN1[C@H](c2ccccc2)CC(=O)[C@@H](C)[C@@H]1c1ccccc1` (relative stereo), the MIC is 100 µg/mL (≈ 327 µM) in the assay with Staphylococcus aureus; 200 µg/mL (≈ 655 µM) with Pseudomonas; 200 µg/mL (≈ 655 µM) in the assay on Rhizopus; 50 µg/mL (≈ 164 µM) against Aspergillus niger; 50 µg/mL (≈ 164 µM) against Aspergillus flavus; 50 µg/mL (≈ 164 µM) against Penicillium chrysogenum. For the same compound, the MIC amounted to 100 µg/mL (≈ 327 µM) against Fusarium oxysporum, 100 µg/mL (≈ 327 µM) against Escherichia coli, 200 µg/mL (≈ 655 µM) in the assay on Bacillus subtilis and 50 µg/mL (≈ 164 µM) with Salmonella typhi.

For `C=CCN1[C@H](c2ccc(C)cc2)CC(=O)[C@@H](C)[C@@H]1c1ccc(C)cc1` (relative stereo), the MIC with Staphylococcus aureus is 50 µg/mL (≈ 150 µM); with Pseudomonas, 50 µg/mL (≈ 150 µM); in the assay with Rhizopus, 6.25 µg/mL (≈ 18.7 µM); in the assay on Aspergillus niger, 50 µg/mL (≈ 150 µM); in the assay with Aspergillus flavus, 50 µg/mL (≈ 150 µM); in the assay on Penicillium chrysogenum, 25 µg/mL (≈ 75 µM). Besides, the MIC amounted to 25 µg/mL (≈ 75 µM) in the assay on Fusarium oxysporum, 25 µg/mL (≈ 75 µM) against Escherichia coli, 100 µg/mL (≈ 300 µM) against Bacillus subtilis and 12.5 µg/mL (≈ 37.5 µM) in the assay on Salmonella typhi. The Ratio in [1] was 3; in [2], 2.

`C=CCN1[C@H](c2ccc(Cl)cc2)CC(=O)[C@@H](C)[C@@H]1c1ccc(Cl)cc1` (relative stereo): the MIC is 25 µg/mL (≈ 66.8 µM) in the assay with Staphylococcus aureus; 50 µg/mL (≈ 134 µM) against Pseudomonas; 25 µg/mL (≈ 66.8 µM) with Rhizopus; 50 µg/mL (≈ 134 µM) in the assay with Aspergillus niger; 25 µg/mL (≈ 66.8 µM) in the assay with Aspergillus flavus; 6.25 µg/mL (≈ 16.7 µM) in the assay on Penicillium chrysogenum. The MIC in the assay with Fusarium oxysporum worked out at 12.5 µg/mL (≈ 33.4 µM); in the assay with Escherichia coli, 12.5 µg/mL (≈ 33.4 µM); in the assay with Bacillus subtilis it was 50 µg/mL (≈ 134 µM); in the assay on Salmonella typhi, 12.5 µg/mL (≈ 33.4 µM).

Regarding `C=CCN1[C@H](c2ccc(OC)cc2)CC(=O)[C@@H](C)[C@@H]1c1ccc(OC)cc1` (relative stereo), the minimum inhibitory concentration (MIC) in the assay on Staphylococcus aureus worked out at 100 µg/mL (≈ 274 µM); in the assay with Pseudomonas, 100 µg/mL (≈ 274 µM); with Rhizopus it was 25 µg/mL (≈ 68.4 µM); with Aspergillus niger, 12.5 µg/mL (≈ 34.2 µM); with Aspergillus flavus, 50 µg/mL (≈ 137 µM); with Penicillium chrysogenum, 50 µg/mL (≈ 137 µM). Also, the MIC against Fusarium oxysporum came to 25 µg/mL (≈ 68.4 µM); with Escherichia coli it was 50 µg/mL (≈ 137 µM); in the assay with Bacillus subtilis, 6.25 µg/mL (≈ 17.1 µM); with Salmonella typhi, 25 µg/mL (≈ 68.4 µM).

In the case of `C=CCN1[C@H](c2ccccc2)CC(=O)[C@@H](CC)[C@@H]1c1ccccc1` (relative stereo), the MIC amounted to 100 µg/mL (≈ 313 µM) against Staphylococcus aureus; 100 µg/mL (≈ 313 µM) against Pseudomonas; 12.5 µg/mL (≈ 39.1 µM) in the assay on Rhizopus; 25 µg/mL (≈ 78.3 µM) in the assay with Aspergillus niger; 100 µg/mL (≈ 313 µM) against Aspergillus flavus; 25 µg/mL (≈ 78.3 µM) in the assay with Penicillium chrysogenum. The minimal inhibitory concentration (MIC) in the assay with Fusarium oxysporum was determined as 50 µg/mL (≈ 157 µM); in the assay on Escherichia coli, 50 µg/mL (≈ 157 µM); with Bacillus subtilis, 12.5 µg/mL (≈ 39.1 µM); in the assay with Salmonella typhi, 100 µg/mL (≈ 313 µM).

For the compound `C=CCN1[C@@H](c2ccccc2)C(C)(C)C(=O)C[C@H]1c1ccccc1` (relative stereo), the MIC with Staphylococcus aureus worked out at 25 µg/mL (≈ 78.3 µM); in the assay on Pseudomonas, 25 µg/mL (≈ 78.3 µM); in the assay with Rhizopus it was 100 µg/mL (≈ 313 µM); in the assay with Aspergillus niger it was 50 µg/mL (≈ 157 µM); in the assay with Aspergillus flavus, 25 µg/mL (≈ 78.3 µM); against Penicillium chrysogenum it was 25 µg/mL (≈ 78.3 µM). Besides, the MIC in the assay with Fusarium oxysporum was found to be 50 µg/mL (≈ 157 µM); in the assay on Escherichia coli it was 25 µg/mL (≈ 78.3 µM); against Bacillus subtilis, 100 µg/mL (≈ 313 µM); with Salmonella typhi, 12.5 µg/mL (≈ 39.1 µM).

As to `C=CCN1[C@H](c2ccccc2)C/C(=N\O)[C@@H](C)[C@@H]1c1ccccc1` (relative stereo), the minimal inhibitory concentration (MIC) against Staphylococcus aureus is 100 µg/mL (≈ 312 µM); in the assay with Pseudomonas, 200 µg/mL (≈ 624 µM); against Rhizopus it was 25 µg/mL (≈ 78 µM); in the assay with Aspergillus niger, 50 µg/mL (≈ 156 µM); in the assay with Aspergillus flavus, 200 µg/mL (≈ 624 µM); in the assay on Penicillium chrysogenum, 100 µg/mL (≈ 312 µM). Besides, the MIC against Fusarium oxysporum is 100 µg/mL (≈ 312 µM); with Escherichia coli, 50 µg/mL (≈ 156 µM); with Bacillus subtilis, 50 µg/mL (≈ 156 µM); with Salmonella typhi, 100 µg/mL (≈ 312 µM).

As to `C=CCN1[C@H](c2ccc(C)cc2)C/C(=N\O)[C@@H](C)[C@@H]1c1ccc(C)cc1` (relative stereo), the minimal inhibitory concentration (MIC) was 200 µg/mL (≈ 574 µM) in the assay with Staphylococcus aureus; 25 µg/mL (≈ 71.7 µM) against Pseudomonas; 100 µg/mL (≈ 287 µM) with Rhizopus; 12.5 µg/mL (≈ 35.9 µM) with Aspergillus niger; 50 µg/mL (≈ 143 µM) in the assay on Aspergillus flavus; 200 µg/mL (≈ 574 µM) in the assay with Penicillium chrysogenum. In addition, the MIC in the assay on Fusarium oxysporum was 25 µg/mL (≈ 71.7 µM); in the assay with Escherichia coli, 50 µg/mL (≈ 143 µM); against Bacillus subtilis it was 50 µg/mL (≈ 143 µM); with Salmonella typhi it was 12.5 µg/mL (≈ 35.9 µM). The Ratio in assay [1] was found to be 3; in assay [2] it was 2.

With `C=CCN1[C@H](c2ccc(Cl)cc2)C/C(=N\O)[C@@H](C)[C@@H]1c1ccc(Cl)cc1` (relative stereo), the MIC is 6.25 µg/mL (≈ 16.1 µM) against Staphylococcus aureus; 50 µg/mL (≈ 128 µM) with Pseudomonas; 25 µg/mL (≈ 64.2 µM) against Rhizopus; 6.25 µg/mL (≈ 16.1 µM) against Aspergillus niger; 50 µg/mL (≈ 128 µM) against Aspergillus flavus; 50 µg/mL (≈ 128 µM) with Penicillium chrysogenum. In addition, the MIC with Fusarium oxysporum stood at 12.5 µg/mL (≈ 32.1 µM); in the assay with Escherichia coli, 100 µg/mL (≈ 257 µM); in the assay with Bacillus subtilis, 50 µg/mL (≈ 128 µM); against Salmonella typhi, 12.5 µg/mL (≈ 32.1 µM).

Take `C=CCN1[C@H](c2ccc(OC)cc2)C/C(=N\O)[C@@H](C)[C@@H]1c1ccc(OC)cc1` (relative stereo): the MIC against Staphylococcus aureus stood at 25 µg/mL (≈ 65.7 µM); in the assay with Pseudomonas it was 12.5 µg/mL (≈ 32.9 µM); with Rhizopus, 25 µg/mL (≈ 65.7 µM); in the assay with Aspergillus niger, 50 µg/mL (≈ 131 µM); in the assay with Aspergillus flavus, 12.5 µg/mL (≈ 32.9 µM); with Penicillium chrysogenum, 100 µg/mL (≈ 263 µM). Besides, the minimal inhibitory concentration (MIC) against Fusarium oxysporum was determined as 25 µg/mL (≈ 65.7 µM); in the assay with Escherichia coli it was 50 µg/mL (≈ 131 µM); against Bacillus subtilis, 100 µg/mL (≈ 263 µM); against Salmonella typhi it was 100 µg/mL (≈ 263 µM).
